# Assays:
# NanoLuc [1] = target: T1, NanoLuc (Oplophorus gracilirostris, UniProt Q9GV45, A31E/A60N/A81I/F95D/I117V/K70R/L54V/L99Q/M102K/N193R/P142E/Q151K/Q38R/Q45L/V71I/Y165I); format: biochemical; conditions: for RLU (at 100 μM): relative value, Furimazine set to 1, NanoLuc, read three minutes after substrate addition
# Experimental: Luminescence Assay Procedure:
# Each compound to be screened was dissolved in DMSO (5 mM) and then further diluted to 100 μM in NANO-GLO® Luciferase Assay Buffer. Km values were determined by first serially diluting substrates two-fold into NANO-GLO® Luciferase Assay Buffer. Substrate dilutions were then combined with an equal volume of NanoLuc diluted to 4 ng/ml in TBS+0.01% BSA. Autoluminescence was measured by combining the 100 uM dilution of substrate with TBS+0.01% BSA. Luminescence and autoluminescence values were measured in a GloMax®-Multi+ luminometer three minutes after substrate addition. Signal decay was measured by combining equal volumes of 100 uM of substrate with 4 ng/ml NanoLuc in TBS+0.01% BSA and then samples were read in five minute intervals for two hours using a GloMax®-Multi+. Km was calculated using GraphPad Prism using nonlinear Michaelis-Menten regression. Signal half-life values were calculated using GraphPad Prism Non-linear decay, plateau set to zero.
# NanoLuc [2] = target: T1, NanoLuc; assay: Inhibition of NanoLuc luciferase: blocking of furimazine luminescence after pre-incubation; format: biochemical; conditions: for Inhibition of NanoLuc (bioluminescence upon later furimazine addition): compound incubated with NanoLuc first, then furimazine (10 μM) added; for Initial luminescent signal compared with furimazine: incubated with NanoLuc in DMEM for 12 minutes
# Experimental: Compounds were also tested for their ability to block furimazine luminescence with NanoLuc. Typically, NanoLuc (0.4 μg/mL) in DMEM was incubated with either furimazine or test compound (50 μM) while monitoring RLU's with a GloMax® luminometer for 10-60 minutes. After the set time, the plate was removed from the instrument, and a dose of furimazine (10 μM) was added to the well containing the test compound and monitored for 10-60 minutes.
# FIGS. 3A-B depicts inhibition of Nluc luciferase by furimazine-h. Furimazine-h (10 μM) was incubated with NanoLuc in NanoGlo or DMEM for 15 or 10 minutes, respectively. This bright signal rapidly degrades to a fraction of the signal observed in the furimazine positive control wells.
# FIG. 9 depicts inhibition of Nluc luciferase by furimazine-h. This is a reverse addition experiment as compared to FIG. 3. Furimazine (10 μM) was incubated with NanoLuc in NanoGlo® buffer for 15 minutes.
# JRW-0855 and JRW-1088 were incubated with NanoLuc in DMEM for 12 minutes. […] After the incubation period, 10 μM furimazine was added to the well.
# [3] = Stability in solution noted at preparation; format: physicochemical; conditions: note at preparation
# T1 sequence (Q9GV45 28-196 with tags or gaps with the stated changes limits assumed): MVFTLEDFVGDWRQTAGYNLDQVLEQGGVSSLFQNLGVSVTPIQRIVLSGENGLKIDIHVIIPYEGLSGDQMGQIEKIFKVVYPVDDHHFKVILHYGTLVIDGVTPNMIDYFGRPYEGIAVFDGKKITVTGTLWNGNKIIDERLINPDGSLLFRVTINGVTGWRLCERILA
Compound,RLU (at 100 μM) (NanoLuc [1]),Inhibition of NanoLuc (bioluminescence upon later furimazine addition) (NanoLuc [2]),Stability in solution [3],Light output (value set to 1) (NanoLuc [1]; at 2 ng/mL NanoLuc),Initial luminescent signal compared with furimazine (NanoLuc [2])
"COc1cc2c(c(Cl)c1OC(C)=O)Oc1c(cc(OC)c(OC(C)=O)c1Cl)C21OC(=O)c2ccc(C(=O)NCCCCCCCCOc3ccc(Cc4nc5c(Cc6ccccc6)[nH]c(-c6ccc(O)cc6)cn-5c4=O)cc3F)cc21 [JRW-0986, 6-((8-(4-((8-benzyl-6-(4-hydroxyphenyl)-3-oxo-3,7-dihydroimidazo[1,2-a]pyrazin-2-yl)methyl)-2-fluorophenoxy)octyl)carbamoyl)-4′,5′-dichloro-2′,7′-dimethoxy-3-oxo-3H-spiro[isobenzofuran-1,9′-xanthene]-3′,6′-diyl diacetate]",0.00005,did not inhibit NanoLuc,instability in solution,–,–
"O=c1ccc2cc(Cc3nc4c(Cc5ccccc5)[nH]c(-c5ccc(O)cc5)cn-4c3=O)ccc2o1 [JRW-0995, 8-benzyl-6-(4-hydroxyphenyl)-2-((2-oxo-2H-chromen-6-yl)methyl)imidazo[1,2-a]pyrazin-3(7H)-one]",0.009,partial Nluc inhibitors,–,–,–
"O=c1c(Cc2ccco2)nc2c(Cc3ccccc3)[nH]c(-c3ccccc3)cn1-2 [Furimazine, 8-benzyl-2-(furan-2-ylmethyl)-6-phenylimidazo[1,2-a]pyrazin-3(7H)-one, reference compound]",1,–,–,~2.0×10^7 RLU,–
"O=C(CCOCCOCCNC(=O)c1ccc(C(=O)[O-])c(-c2c3ccc(O)cc3[o+]c3cc(O)ccc23)c1)NCCCCCCCCOc1ccc(Cc2cc3c(Cc4ccccc4)[nH]c(-c4ccc(O)cc4)cn-3c2=O)cc1F [JRW-0926, 4-((2-(2-(3-((8-(4-((1-benzyl-3-(4-hydroxyphenyl)-6-oxo-2,6-dihydropyrrolo[1,2-a]pyrazin-7-yl)methyl)-2-fluorophenoxy)octyl)amino)-3-oxopropoxy)ethoxy)ethyl)carbamoyl)-2-(3,6-dihydroxyxanthylium-9-yl)benzoate]",0.04,exemplary suicide substrates of NanoLuc,–,–,–
"O=C(NCCCCCCCCOc1ccc(Cc2nc3c(Cc4ccccc4)[nH]c(-c4ccc(O)cc4)cn-3c2=O)cc1F)c1ccc(-c2c3ccc4cc(O)ccc4c3[o+]c3c2ccc2cc(O)ccc23)c(C(=O)[O-])c1 [JRW-1059, 5-((8-(4-((8-benzyl-6-(4-hydroxyphenyl)-3-oxo-3,7-dihydroimidazo[1,2-a]pyrazin-2-yl)methyl)-2-fluorophenoxy)octyl)carbamoyl)-2-(3,11-dihydroxydibenzo[c,h]xanthen-14-ium-7-yl)benzoate]",–,NanoLuc is not inhibited,–,–,–
"O=C(NCCCCCCCCOc1ccc(Cc2nc3c(Cc4ccccc4)[nH]c(-c4ccc(O)cc4)cn-3c2=O)cc1F)c1ccc(-c2c3cc(F)c(O)cc3[o+]c3cc(O)c(F)cc23)c(C(=O)[O-])c1 [JRW-1058, 5-((8-(4-((8-benzyl-6-(4-hydroxyphenyl)-3-oxo-3,7-dihydroimidazo[1,2-a]pyrazin-2-yl)methyl)-2-fluorophenoxy)octyl)carbamoyl)-2-(2,7-difluoro-3,6-dihydroxyxanthylium-9-yl)benzoate]",–,exemplary suicide substrates of NanoLuc,–,–,–
"O=C(NCCCCCCCCOc1ccc(Cc2nc3c(Cc4ccccc4)[nH]c(-c4ccc(O)cc4)cn-3c2=O)cc1F)c1cc2cc3c4c(c2oc1=O)CCCN4CCC3 [JRW-1023, N-(8-(4-((8-benzyl-6-(4-hydroxyphenyl)-3-oxo-3,7-dihydroimidazo[1,2-a]pyrazin-2-yl)methyl)-2-fluorophenoxy)octyl)-11-oxo-2,3,6,7-tetrahydro-1H,5H,11H-pyrano[2,3-f]pyrido[3,2,1-ij]quinoline-10-carboxamide]",–,did not inhibit NanoLuc,–,–,–
"O=C(NCCCCCCCCOc1ccc(Cc2nc3c(Cc4ccccc4)[nH]c(-c4ccc(O)cc4)cn-3c2=O)cc1F)c1cc2ccc(O)cc2oc1=O [JRW-1018, N-(8-(4-((8-benzyl-6-(4-hydroxyphenyl)-3-oxo-3,7-dihydroimidazo[1,2-a]pyrazin-2-yl)methyl)-2-fluorophenoxy)octyl)-7-hydroxy-2-oxo-2H-chromene-3-carboxamide]",–,partial Nluc inhibitors,–,–,–
"O=C(CCc1ccc2n1[B-](F)(F)[N+]1=C(c3ccc[nH]3)C=CC1=C2)NCCCCCCOc1ccc(Cc2nc3c(Cc4ccccc4)[nH]c(-c4ccc(O)cc4)cn-3c2=O)cc1F [JRW-0900, N-(6-(4-((8-benzyl-6-(4-hydroxyphenyl)-3-oxo-3,7-dihydroimidazo[1,2-a]pyrazin-2-yl)methyl)-2-fluorophenoxy)hexyl)-3-(5,5-difluoro-7-(1H-pyrrol-2-yl)-5H-5l4,6l4-dipyrrolo[1,2-c:2′,1′-f][1,3,2]diazaborinin-3-yl)propanamide]",0.00094,did not inhibit NanoLuc,–,–,–
"Cc1cc(C)n2c1C(CCNC(=O)CCC(=O)NCCCCCCCCOc1ccc(Cc3nc4c(Cc5ccccc5)[nH]c(-c5ccc(O)cc5)cn-4c3=O)cc1F)=C1C=CC=[N+]1[B-]2(F)F [JRW-1088, N1-(8-(4-((8-benzyl-6-(4-hydroxyphenyl)-3-oxo-3,7-dihydroimidazo[1,2-a]pyrazin-2-yl)methyl)-2-fluorophenoxy)octyl)-N4-(2-(5,5-difluoro-1,3-dimethyl-5H-5λ^4,6λ^4-dipyrrolo[1,2-c:2′,1′-f][1,3,2]diazaborinin-10-yl)ethyl)succinamide]",–,only partially inhibited,–,–,significantly lower
"NCCOCCOCCC(=O)NCCCCCCCCOc1ccc(Cc2cc3c(Cc4ccccc4)[nH]c(-c4ccc(O)cc4)cn-3c2=O)cc1F [JRW-0925, 3-(2-(2-aminoethoxy)ethoxy)-N-(8-(4-((1-benzyl-3-(4-hydroxyphenyl)-6-oxo-2,6-dihydropyrrolo[1,2-a]pyrazin-7-yl)methyl)-2-fluorophenoxy)octyl)propanamide]",0.02,partial Nluc inhibitors,–,–,–
"NCCCCCCOc1ccc(Cc2nc3c(Cc4ccccc4)[nH]c(-c4ccc(O)cc4)cn-3c2=O)cc1F [JRW-0855, 2-(4-((6-aminohexyl)oxy)-3-fluorobenzyl)-8-benzyl-6-(4-hydroxyphenyl)imidazo[1,2-a]pyrazin-3(7H)-one]",0.004,only partially inhibited,–,–,significantly lower
"O=c1c(Cc2ccc(OCCCCCCS(=O)(=O)[O-])c(F)c2)nc2c(Cc3ccccc3)[nH]c(-c3ccc(O)cc3)cn1-2.[Na+] [JRW-0892-2, Sodium 6-(4-((8-benzyl-6-(4-hydroxyphenyl)-3-oxo-3,7-dihydroimidazo[1,2-a]pyrazin-2-yl)methyl)-2-fluorophenoxy)hexane-1-sulfonate]",0.04,exemplary suicide substrates of NanoLuc,–,–,–
"[N-]=[N+]=NCCCCCCOc1ccc(Cc2nc3c(Cc4ccccc4)[nH]c(-c4ccc(O)cc4)cn-3c2=O)cc1F [JRW-0975, 2-(4-((6-azidohexyl)oxy)-3-fluorobenzyl)-8-benzyl-6-(4-hydroxyphenyl)imidazo[1,2-a]pyrazin-3(7H)-one]",0.005,exemplary suicide substrates of NanoLuc,–,–,–
"NCCCCCCCCOc1ccc(Cc2nc3c(Cc4ccccc4)[nH]c(-c4ccc(O)cc4)cn-3c2=O)cc1F [JRW-0904, 2-(4-((8-aminooctyl)oxy)-3-fluorobenzyl)-8-benzyl-6-(4-hydroxyphenyl)imidazo[1,2-a]pyrazin-3(7H)-one]",–,partial Nluc inhibitors,–,–,–
"O=C(NCCCCCCOc1ccc(Cc2nc3c(Cc4ccccc4)[nH]c(-c4ccc(O)cc4)cn-3c2=O)cc1F)c1ccc(C(=O)[O-])c(-c2c3ccc(O)cc3[o+]c3cc(O)ccc23)c1 [JRW-0893, 4-((6-(4-((8-benzyl-6-(4-hydroxyphenyl)-3-oxo-3,7-dihydroimidazo[1,2-a]pyrazin-2-yl)methyl)-2-fluorophenoxy)hexyl)carbamoyl)-2-(3,6-dihydroxyxanthylium-9-yl)benzoate]",0.05,exemplary suicide substrates of NanoLuc,–,–,–
